Marks after values point to notes of the source that are not given here.
System: Pseudomonas putida (DSM 25068)
Assay: Minimum inhibitory concentration and synergy index (Kull) of CMIT combinations in Müller-Hinton broth microtiter plates
Format: cell-based
Conditions: 48 hours at 30° C.; for synergy index: SI=Qa/QA+Qb/QB
Excerpt: The synergism of a combination of 5-chloro-2-methylisothiazolin-3-one, containing 0.003 wt. %, in relation to the total proportion of 5-chloro-2-methyl-4-isothiazolin-3-one, of 2-methylisothiazolin-3-one, each time with a biocide/substance selected from the group of 1,2-benzisothiazolin-3-one (BIT), 2-bromo-2-nitropropane-1,3-diol (Bronopol), and zinc, was investigated for a synergistic interaction.
The test organisms used were the Gram-negative bacterium Pseudomonas putida (DSM 25068). For this, mixtures with different concentrations of the respective active substances were prepared and tested in regard to their effect on Pseudomonas putida. The testing was done in Müller-Hinton broth MHB (pH 7.0) with a cell density of 10^6 germs per ml.
The incubation time of the microtiter plates was 48 hours at 30° C. After 48 hours, the batches were evaluated for turbidity due to growth and, in addition, the optical density was determined by photometry. In this way, the minimum inhibitory concentrations (MHK) were determined for the two active substances individually and in combination.
The resulting synergism was represented numerically by calculating the synergy index (SI). The calculation was done by the customary method of F. C. Kull et al., Applied Microbiology, Vol. 9 (1961), p. 538. Loc. cit., the SI is calculated by the following formula: synergy index SI=Qa/QA+Qb/QB Qa=concentration of component A in the mixture A+B QA=concentration of component A as solitary biocide Qb=concentration of component B in the mixture A+B QB=concentration of component B as solitary biocide
If the synergy index has a value over 1, this means that an antagonism is present. If the synergy index takes on the value 1, this means that an addition of the effect of the two biocides/compounds is present. If the synergy index takes on a value below 1, this means that a synergism exists for the two biocides.

[1] = CMIT and BIT, below 1 = synergism
[2] = single agent, MHB pH 7.0, 10^6 germs per ml
[3] = CMIT and Bronopol, below 1 = synergism
[4] = CMIT and zinc (ZnCl2), QB assumed 240 ppm

SMILES | synergy index [1] | concentration as solitary agent indicating an end point (minimum inhibitory concentration, QA/QB) [2] | synergy index [3] | MIC (Pseudomonas putida, DSM25068, single agent, MHB pH 7.0, 10^6 germs per ml, read-out: concentration as solitary agent indicating an end point (minimum inhibitory concentration, QA/QB)) [µg/mL] | synergy index [4]
O=c1[nH]sc2ccccc12 [BIT, 1,2-benzisothiazolin-3-one] | 1.00 | 100 ppm |  |  | 
O=[N+]([O-])C(Br)(CO)CO [Bronopol, 2-bromo-2-nitropropane-1,3-diol] |  |  | 1.00 | 15 | 
Cn1sc(Cl)cc1=O [CMIT, 5-chloro-2-methylisothiazolin-3-one] | 1.00 | 1.5 ppm | 1.00 |  | 1.00
[Cl-].[Cl-].[Zn+2] [Zn, zinc chloride] |  | > 240* ppm |  |  | 1.00
